Experimental data reported in patent US7041275B2, “Irrigating fluid” (priority 2001, dated 2006).

Legend:
[1] = Nitrous oxide concentration in exhaled air of pigs after injection of irrigating fluid containing nitrous oxide; assay type: in vivo, pig
Text: A Telair N2O monitor type 2001 L was used to measure the nitrous oxide concentration. The measuring range of the instrument was 0–1000 ppm.
As the analyser was sensitive also to carbon dioxide an absorber containing soda lime to remove the carbon dioxide was arranged before the analyser. During the absorption process water is formed which together with the moisture in the exhaled air can disturb the measurements. A layer of silica gel after the soda lime absorber was used to eliminate this problem.
The sample gas pump gave a sample flow of 300 mL/min.
The pump was continuously pumping gas. The measured concentration was a time weighted average for the exhaled and inhaled gas.
The weight of the pig was 19 kg.
The weight of the pig was 21 kg. Ventilation as for pig. 1. First 300 mL of irrigating fluid were injected intraperitonally during 20 minutes. The initial decrease in nitrous oxide concentration was caused by placing the needle in the wrong place. Some mL were injected before the injection was stopped and the test restarted. The decrease is the decay phase from the first injection.
In test two 600 mL were administered intravenously during 20 minutes.
Weight 23 kg. Ventilation […], the rest as for pig 1. First a number of tests with intravenous injection of pulses of fluid were performed. The volumes added were 2, 10 and 20 mL. Approximately 1 mL/s was added.
Then 150 mL of fluid were administered intravenously during 20 minutes. The discontinuity in the diagram was caused by testing another ventilator setting which affected the reading so much that the data point was not used. After 40 minutes 600 mL of irrigating fluid were added intravenously during 20 minutes.
The nitrous oxde concentration values are measured concentrations minus the starting point value. In some cases a test was started while the nitrous oxide concentration from the previous test was still decreasing. As the base line was not stable, the values at the end of the decay phase are uncertain. This can be seen in FIG. 4, where it looks like the 150 mL concentration values are stabilizing at a higher level than the 600 mL values.

[2] = pig, in vivo
Method: To a bag with 3 L fluid 300 mL of nitrous oxide (=0,18 mg nitrous oxide/mL irrigagting fluid) were added. The nitrous oxide was measured with a 300 mL glass syringe and injected into the bag using the syringe connection. The temperature was abut 22° C. and the air pressure about 1015 mbar (not measured but estimated via meteorological service). Before the addition of nitrous oxide the gas in the bag was removed, about 1 mL remained. After the addition of nitrous oxide the bag was shaken until the nitrous oxide was dissolved. A gas bubble with a volume of abut 15 mL remained.
The weight of the pig was 19 kg. Ventilation 3L/min with 20 breaths per minute, 25% inhalation followed by 10% pause. At the first test 300 mL of irrigating fluid were injected intravenously during 20 min using a dosing pump.

[3] = intraperitoneal injection of irrigating fluid, exhaled air
[4] = intravenous injection of irrigating fluid, exhaled air

SMILES	decrease of concentration in exhaled air compared with ethanol ([1]; data normalised to similar peak heights, pig 1, intravenous)	time before the nitrous oxide concentration started to increase [1, 3] [min]	time to 50% of the final concentration after the start of the increase [1, 3]	time after start of injection until nitrous oxide concentration started to increase [1, 4]	time to 50% of the final concentration after the concentration started to increase [1, 4]	measured nitrous oxide concentration used in mass balance ([1]; pig 3, 30 mL/min irrigating fluid intravenously, time weighted average of exhaled and inhaled gas) [ppm]	exhaled nitrous oxide (mass balance) ([1]; pig 3, added amount of nitrous oxide 3,0 mL/min)	increase of nitrous oxide concentration per mL of irrigating fluid ([1]; pulses of fluid added intravenously (2, 10, 20 mL), exhaled air, pig 3)	time of peak reading after start of injection ([1]; pulses of fluid added intravenously, exhaled air)	highest measured ethanol concentration [2] [%]
[N-]=[N+]=O [nitrous oxide]	decreased much faster than the ethanol	2.5	about 5 minutes	about 15 seconds	about one	520	3,0 mL/min	10–15 ppm per mL	about 30 seconds	
CCO [ethanol]										0.20
